Assay results from US11344614B2, “Pharmaceutical compositions comprising dengue virus-specific multiple HLA-binding T cell epitopes” (priority 2018, dated 2022).
Peptide text beside a SMILES is read from it.

Tested on: CD8+ T cells
Conditions: healthy seronegative HLA-A2 donor CTLs, peptide pulsed or DENV-2 infected JY cells, FIG. 1; for secretion of granzyme B (cytotoxic activity): supernatant
Description: FIG. 1. […] (A.) HLA-A2 restricted CTLs directed against the peptides (peptides are represented as first 3 residues of the sequence) were generated using peripheral blood from a seronegative donor. PBMCs containing the epitope specific CTLs were harvested, washed, and cultured with the peptide […] cells overnight in an IFN-gamma ELISpot assay. (B). Identical cultures were set up as in (A) but in 96 well round bottom plates. The next day, supernatant was harvested and used to detect cytolytic activity (B) and the cells were analyzed for the marker of degranulation, CD107a (C.)
Epitope specific CD8^+ T cells (CTLs) were generated as previously described. […] Two hours after pulsing, the non-adherent cells were added back into the plates in a cytokine rich medium of RPMI-1640 supplemented with IL-7 (5 ng/mL), GM-CSF (25 ng/mL), IL-4 (50 ng/mL), and keyhole limpet hemocyanin (5 ug/mL KLH; Sigma-Aldrich) and cultured at 37° C. at 5% CO2. T cells in the culture were restimulated two weeks after the initial stimulation with autologous PBMCs depleted of CD4^+ and CD8^+ T cells and pulsed with synthetic peptides (10 ug/mL) and β2-microglobulin (1.5 ug/mL). Restimulated cells were cultured in RPMI-1640 supplemented with IL-15 (5 ng/mL), GM-CSF (12.5 ng/mL) and IL-2 (10 U/mL) for 7 days. Restimulation was performed a total of three times prior to CTL functional assays. Unless otherwise specified, all cytokines and growth factors were purchased from eBiosciences (San Diego, Calif.).

SMILES	degranulation marker CD107a (cytotoxic activity)	secretion of granzyme B (cytotoxic activity)
CC[C@H](C)[C@H](NC(=O)[C@H](CCSC)NC(=O)[C@@H](NC(=O)[C@H](CC(N)=O)NC(=O)[C@@H]1CCCN1C(=O)[C@@H](NC(=O)[C@H](CS)NC(=O)[C@H](CC(C)C)NC(=O)[C@@H](N)CC(C)C)C(C)C)[C@@H](C)CC)C(=O)O [LLC] (H-LLCVPNIMI-OH; N-terminus and C-terminus assumed)	upregulation of the degranulation marker CD107a	secretion
CC[C@H](C)[C@H](NC(=O)[C@@H](NC(=O)[C@H](C)NC(=O)[C@H](CC(N)=O)NC(=O)[C@@H]1CCCN1C(=O)[C@@H](NC(=O)[C@H](CS)NC(=O)[C@H](CC(C)C)NC(=O)[C@H](CCSC)NC(=O)[C@H](C)N)[C@@H](C)CC)[C@@H](C)CC)C(=O)O [AML] (H-AMLCIPNAII-OH; N-terminus and C-terminus assumed)	upregulation of the degranulation marker CD107a	secretion
CC[C@H](C)[C@H](NC(=O)[C@H](Cc1ccccc1)NC(=O)[C@H](C)N)C(=O)N[C@@H](C)C(=O)N[C@@H](Cc1ccccc1)C(=O)N[C@H](C(=O)N[C@@H](CCCNC(=N)N)C(=O)N[C@@H](Cc1ccccc1)C(=O)O)C(C)C [AFI] (H-AFIAFVRF-OH; N-terminus and C-terminus assumed)	upregulation of the degranulation marker CD107a	secretion
CC[C@H](C)[C@H](NC(=O)[C@@H](NC(=O)[C@@H](N)CCSC)[C@@H](C)CC)C(=O)N[C@H](C(=O)N[C@@H](CC(=O)O)C(=O)N[C@@H](CCC(=O)O)C(=O)N[C@@H](C)C(=O)N[C@@H](Cc1c[nH]cn1)C(=O)N[C@@H](Cc1ccccc1)C(=O)O)C(C)C [MII] (H-MIIVDEAHF-OH; N-terminus and C-terminus assumed)	upregulation of the degranulation marker CD107a	secretion
